Values of other authors as cited in paper PMC8559537 (ACS infectious diseases, 2021).

System: nanoluciferase (Nluc) expressing C. parvum
Details: positive control, 100 mg/kg

CCOc1ccc2cc(-c3nn(CC4CCN(C)CC4)c4ncnc(N)c34)ccc2n1 [BKI-1369]
effect on infection in the IFN-γ KO mouse model: reduce infection quickly
